Among the data in ChEMBL document CHEMBL4831526, “Cytotoxic Guaianolide Sesquiterpenoids from Ainsliaea fragrans” (J Nat Prod, 2021) are IC50 values, retold here.

Molecules are shown by their SMILES.

Holding throughout (assay type): functional, cell-based
A short description of assay [1]: Cytotoxicity against human HCCLM3 cells assessed as reduction in cell viability incubated for 72 hrs by Celltiter-Glo assay. Conditions: HCCLM3, 72 h. Background: ATP-based viability assays read luminescence as a measure of living cells.
A further assay concerns PANC-1. The assay is described as follows: Cytotoxicity against human PANC-1 cells assessed as reduction in cell viability incubated for 72 hrs by Celltiter-Glo assay. Conditions: PANC-1, 72 h.
The test system of a further assay is HeLa. Put plainly: Cytotoxicity against human HeLa cells assessed as reduction in cell viability incubated for 72 hrs by Celltiter-Glo assay.
Another assay relates to Huh-7. Put plainly: Cytotoxicity against human Huh-7 cells assessed as reduction in cell viability incubated for 72 hrs by Celltiter-Glo assay. The conditions noted are these: Huh-7, 72 h.
For the next assay, the system named is C6. The assay is described as follows: Cytotoxicity against rat C6 cells assessed as reduction in cell viability incubated for 72 hrs by Celltiter-Glo assay. The conditions noted are these: C6, 72 h.

Usually IC50 stands for the concentration that gives 50% inhibition. Turning to `C=C1C(=O)C2=C3[C@@H](CC[C@H]4C(=C)C(=O)O[C@@H]4[C@@H]13)CC[C@]21C(=O)C[C@H]2C(=C)CC[C@H]3C(=C)C(=O)O[C@@H]3[C@H]21`, the IC50 in assay [1] was > 10 µM; in the assay with PANC-1, > 10 µM; in the assay on HeLa, > 10 µM; with Huh-7, > 10 µM; in the assay on C6, 6.4 µM.

For the molecule `C=C1C(=O)O[C@@H]2[C@@H]3C4=C(C(=O)[C@H]3C)[C@]3(CC[C@@]4(O)CC[C@@H]12)C(=O)C[C@H]1C(=C)CC[C@@H]2[C@H](OC(=O)[C@H]2C)[C@H]13`, the concentration for half-maximal inhibition (IC50) in assay [1] is > 10 µM; in the assay with PANC-1, 4.9 µM; in the assay on HeLa, 6.5 µM; in the assay on Huh-7, 4.1 µM; in the assay on C6, 3.1 µM.

As to `C=C1C(=O)O[C@@H]2[C@@H]3C4=C(C(=O)[C@H]3CO)[C@]3(CC[C@]4(O)CC[C@@H]12)C(=O)C[C@H]1C(=C)CC[C@H]2C(=C)C(=O)O[C@@H]2[C@H]13`, the IC50 (in assay [1]; in the assay with PANC-1; in the assay with HeLa; in the assay with Huh-7; with C6) was > 10 µM each time.

Consider `C=C1C(=O)C2=C3[C@H]1[C@H]1OC(=O)C(CO)=C1CC[C@]3(O)CC[C@]21C(=O)C[C@H]2C(=C)CC[C@H]3C(=C)C(=O)O[C@@H]3[C@H]21`, for which the half-maximal inhibitory concentration (IC50) is > 10 µM in assay [1]; > 10 µM in the assay on PANC-1; > 10 µM with HeLa; > 10 µM with Huh-7; 9.9 µM in the assay with C6.

For `C=C1C(=O)C2=C3[C@H]1[C@H]1OC(=O)C(=C)[C@@H]1CC[C@]3(O)CC[C@]21C(=O)[C@H](C[C@@H]2C(=O)C[C@H]3C(=C)CC[C@H]4C(=C)C(=O)O[C@@H]4[C@@H]23)[C@H]2C(=C)CC[C@H]3C(=C)C(=O)O[C@@H]3[C@H]21`, the IC50 worked out at 8.3 µM in assay [1]; 0.4 µM in the assay with PANC-1; 1.3 µM in the assay with HeLa; 2.5 µM in the assay on Huh-7; 0.7 µM in the assay on C6.

Consider `C=C1C(=O)C2=C3[C@H](CC[C@H]4C(=C)C(=O)O[C@@H]4[C@@H]13)CC[C@]21C(=O)C[C@H]2C(=C)CC[C@H]3C(=C)C(=O)O[C@@H]3[C@H]21`, for which the IC50 (in assay [1]; in the assay on PANC-1; in the assay on HeLa; with Huh-7; with C6) was > 10 µM in each case.

Turning to `C=C1C(=O)C2=C3[C@H]1[C@H]1OC(=O)C(=C)[C@@H]1CC[C@@]3(O)CC[C@]21C(=O)C[C@H]2C(=C)CC[C@H]3C(=C)C(=O)O[C@@H]3[C@H]21`, the IC50 was > 10 µM in assay [1]; 5.4 µM in the assay with PANC-1; > 10 µM in the assay on HeLa; > 10 µM in the assay on Huh-7; > 10 µM in the assay with C6.

For `C=C1C(=O)C2=C3[C@H](CC[C@H]4C(=C)C(=O)O[C@@H]4[C@@H]13)CC[C@@]21C(=O)C2=C3[C@H]1[C@H]1OC(=O)C(=C)[C@@H]1CC[C@@]3(O)CC[C@]21C(=O)C[C@H]2C(=C)CC[C@H]3C(=C)C(=O)O[C@@H]3[C@H]21`, the IC50 is > 10 µM in assay [1]; 2.5 µM in the assay on PANC-1; 7 µM with HeLa; 7.5 µM in the assay with Huh-7; 2.1 µM in the assay with C6.

For the molecule `C=C1C(=O)C2=C3[C@H]1[C@H]1OC(=O)C(=C)[C@@H]1CC[C@]3(O)CC[C@]21C(=O)C[C@H]2C(=C)CC[C@H]3C(=C)C(=O)O[C@@H]3[C@H]21`, the half-inhibitory concentration (IC50) in assay [1] was > 10 µM; in the assay with PANC-1 it was 2.2 µM; in the assay with HeLa it was 2.8 µM; in the assay with Huh-7, 2.5 µM; in the assay on C6, 1.2 µM.

`C=C1C(=O)O[C@@H]2[C@@H]3[C@@H](C[C@@]4(O)[C@]3(O)CC[C@]43C(=O)C[C@H]4C(=C)CC[C@H]5C(=C)C(=O)O[C@@H]5[C@H]43)C(=C)CC[C@@H]12`: the 50% inhibitory concentration (IC50) is > 10 µM in assay [1]; 9.9 µM in the assay with PANC-1; 5.3 µM in the assay on HeLa; 4.4 µM with Huh-7; 4.3 µM with C6.
